The NIST ThermoML archive (doi:10.1016/j.jct.2017.03.027)
± gives the expanded uncertainty stated by the source.

Experiments:
[1] = molar heat capacity at constant pressure; settings: 100 kPa, Liquid, Large sample (1 g) DSC
[2] = 100 kPa, Liquid, Vibrating tube method
[3] = molar heat capacity at constant pressure; xn = mol fraction of the nth substance listed; settings: 100 kPa, Liquid, Large sample (1 g) DSC, x2 = 0
[4] = xn = mol fraction of the nth substance listed; settings: 100 kPa, Liquid, Vibrating tube method, x2 = 0

molar heat capacity at constant pressure ([1]; 298.6 K) [J/K/mol]	molar heat capacity at constant pressure ([1]; 308.5 K) [J/K/mol]	molar heat capacity at constant pressure ([1]; 318.5 K) [J/K/mol]	molar heat capacity at constant pressure ([1]; 328.4 K) [J/K/mol]	mass density ([2]; 298.15 K) [kg/m3]	mass density ([2]; 308.15 K) [kg/m3]	mass density ([2]; 318.15 K) [kg/m3]	mass density ([2]; 328.15 K) [kg/m3]	Compound	molar heat capacity at constant pressure ([3]; 298.6 K) [J/K/mol]	molar heat capacity at constant pressure ([3]; 308.5 K) [J/K/mol]	molar heat capacity at constant pressure ([3]; 318.5 K) [J/K/mol]	molar heat capacity at constant pressure ([3]; 328.4 K) [J/K/mol]	mass density ([4]; 298.15 K) [kg/m3]	mass density ([4]; 308.15 K) [kg/m3]	mass density ([4]; 318.15 K) [kg/m3]	mass density ([4]; 328.15 K) [kg/m3]
240.3 ± 3.9	244.7 ± 4	249.4 ± 4.1	254.4 ± 4.1	852.93 ± 0.71	844.89 ± 0.71	836.81 ± 0.71	828.69 ± 0.71	Cc1ccc(C(C)C)cc1 [1-(1-methylethyl)-4-methylbenzene]								
								CCO [ethanol] + Cc1ccc(C(C)C)cc1	112 ± 1.8	116.4 ± 1.9	121 ± 2	125.6 ± 2	785.11 ± 0.71	776.44 ± 0.71	767.62 ± 0.71	758.6 ± 0.71
112 ± 1.8	116.4 ± 1.9	121 ± 2	125.6 ± 2	785.11 ± 0.71	776.44 ± 0.71	767.62 ± 0.71	758.6 ± 0.71	CCO [ethanol]								
